Data reported in BigSolDB 2.1.

Nc1cccnn1
Conditions | solubility (mole fraction)
in acetone, 288.25 K | 0.0068
in acetone, 293.15 K | 0.00801
in acetone, 298.35 K | 0.00907
in acetone, 303.05 K | 0.0102
in acetone, 308.35 K | 0.012
in acetone, 313.25 K | 0.0133
in acetone, 317.85 K | 0.0148
in acetone, 323.35 K | 0.0169
in acetone, 328.05 K | 0.0187
in aniline, 288.05 K | 0.0231
in aniline, 293.25 K | 0.0289
in aniline, 298.35 K | 0.0347
in aniline, 302.95 K | 0.0419
in aniline, 308.45 K | 0.0487
in aniline, 313.15 K | 0.0559
in aniline, 318.15 K | 0.0623
in aniline, 323.45 K | 0.0693
in aniline, 328.15 K | 0.076
in aniline, 333.35 K | 0.0825
in ethanol, 288.35 K | 0.0193
in ethanol, 294.05 K | 0.0213
in ethanol, 298.75 K | 0.0237
in ethanol, 303.15 K | 0.0266
in ethanol, 308.25 K | 0.0306
in ethanol, 313.35 K | 0.0349
in ethanol, 318.35 K | 0.0409
in ethanol, 323.35 K | 0.0492
in ethanol, 328.35 K | 0.0602
in ethanol, 333.15 K | 0.0713
in ethyl acetate, 288.45 K | 0.00228
in ethyl acetate, 293.15 K | 0.00275
in ethyl acetate, 298.65 K | 0.00324
in ethyl acetate, 302.75 K | 0.00383
in ethyl acetate, 307.15 K | 0.00434
in ethyl acetate, 312.95 K | 0.00522
in ethyl acetate, 318.65 K | 0.00588
in ethyl acetate, 322.65 K | 0.00665
in ethyl acetate, 328.25 K | 0.00738
in ethyl acetate, 332.35 K | 0.00813
in isopropanol, 288.15 K | 0.0122
in isopropanol, 298.15 K | 0.0172
in isopropanol, 303.55 K | 0.0203
in isopropanol, 308.45 K | 0.0233
in isopropanol, 312.85 K | 0.0277
in isopropanol, 317.75 K | 0.0315
in isopropanol, 323.25 K | 0.0373
in isopropanol, 328.05 K | 0.0412
in isopropanol, 332.95 K | 0.0465
in methanol, 288.15 K | 0.0356
in methanol, 293.05 K | 0.0398
in methanol, 298.15 K | 0.0455
in methanol, 303.25 K | 0.052
in methanol, 308.15 K | 0.0596
in methanol, 313.15 K | 0.0675
in methanol, 318.25 K | 0.076
in methanol, 323.55 K | 0.0865
in methanol, 328.15 K | 0.0981
in n-butanol, 289.35 K | 0.0105
in n-butanol, 293.35 K | 0.0126
in n-butanol, 298.05 K | 0.017
in n-butanol, 303.15 K | 0.0218
in n-butanol, 308.15 K | 0.0267
in n-butanol, 313.15 K | 0.0324
in n-butanol, 318.05 K | 0.0371
in n-butanol, 322.65 K | 0.042
in n-butanol, 327.95 K | 0.0469
in n-butanol, 332.95 K | 0.0519
in n-propanol, 288.45 K | 0.0161
in n-propanol, 293.05 K | 0.0185
in n-propanol, 298.35 K | 0.022
in n-propanol, 302.85 K | 0.0255
in n-propanol, 308.15 K | 0.0293
in n-propanol, 313.05 K | 0.0351
in n-propanol, 318.35 K | 0.0401
in n-propanol, 322.95 K | 0.0461
in n-propanol, 327.95 K | 0.0519
in n-propanol, 333.15 K | 0.0602
